The subject of data set [1] is pigs fed P-adequate corn-soybean meal basal diet. Description: Expt 2: metatarsal and femur breaking strength, three-point bending test. The class given is in vivo, pig. Particulars: main effect, phytase 2,000 U/kg or Sr 50 mg/kg. How it is done:
Third and 4th metatarsals in both experiments and femur (right leg) in Experiment 2 were prepared by manually removing surrounding skin, muscle and other tissues. Bones were stored in closed plastic bags at 4° C. until strength analysis. Maximal breaking load was measured using an Instron 4500 Machine (Canton, Mass.) at room temperature (23° C.) by subjecting each bone to a three-point bending test^(28). During mechanical tests, force was applied to the center of the bone held by supports 2.0 cm apart for metatarsals and 3.3 cm apart for femur. The crosshead speed was set at 50 mm/min and the sample rate was 10 points/s. Final strength was determined from load-displacement curves indicating the maximum loads. The metatarsal breaking strength was expressed as the mean strength of four bones from both left and right feet of pigs in Experiment 1, and as the mean of the two bones from the right foot of pigs in Experiment 2.

For data set [2] the test system is unchanged. Description: Expt 2: femur geometrical and strength properties. The class given is in vivo, pig. Particulars: phytase 2000 U/kg and/or Sr 50 mg/kg, n=6. The procedure:
A three-point bending test was conducted on the dissected bones to generate load-deformation curves with an Instron Model 5566 (Norwood, Mass.). Mechanical properties of bones were calculated using formula as previously described^(29). Bone cross sections were cut at the mid-point of loading and used to determine area moment of inertia. Cross sections were submersed for 5 min in a 0.4 mol/L sodium hypochlorite solution to remove periosteum and marrow tissue, and then embedded in blue clay (Play-Doh, Hasbro, Pawtucket, R.I.) to prevent depth-of-field distortions and to enhance contrasts. The embedded sections were scanned with a flat-bed scanner (Epson Perfection Model 3490, Long Beach, Calif.) and analyzed using Image J software (30) to measure the x-y coordinates of bone pixels.

Data set [3] has the same test system. Description: Expt 2: BMC, BMD and bone area by dual energy X-ray absorptiometry. The data set is classed as in vivo, pig. Particulars: main effect, phytase 2,000 U/kg or Sr 50 mg/kg. The procedure: In Experiment 2, bone mineral content (BMC, g) and bone mineral density (BMD, g/cm^2) of 3rd and 4th metatarsals from the left foot and femur from the left leg of each pig were measured. After being thawed to room temperature, entire bones were placed on a rice bag (to remove background effects) and scanned by dual energy X-ray absorptiometry using the GE Lunar Prodigy instrument (GE Lunar, Prodigy, Madison Wis.) in the small animal scan mode. Values of BMC and BMD were predicted by analysis of scans using Prodigy software (version 10.10.038).

Data set [4] shares this test system. As to the kind of experiment: Expt 2: metatarsal and femur mineral concentrations (ICP). The class given is in vivo, pig. The procedure:
After the breaking strength analysis, samples (˜100 to 200 mg) of metatarsals in both experiments and femur in Experiment 2 from the right legs were used for mineral analysis. Cortical bones were isolated after removing attached connective tissue using a stainless steel scalpel and collecting individual shards using needle-nosed pliers with plastic-covered clamps. […] Concentrations of individual elements in the dried bone samples were measured using inductively coupled argon plasma spectrophotometer (ICAP 61E Trace Analyzer, Thermo Jarell Ash corporation, Franklin, Mass.)(31). Samples were digested in a mixture of HNO3 and HClO4 (9:1, vol/vol), and then diluted in 5% HNO3 before analysis.

The subject of the next data set is rats. Particulars: cited from earlier work.
The test system of the next data set is mice. Particulars: cited from earlier work.
[5] abbreviates: main effect of Sr 50 mg/kg, P<0.0001.
Setting [6] is: phytase 2000 U/kg and/or Sr 50 mg/kg, n=6.

Turning to `O=C([O-])[O-].[Sr+2]` [Sr, SrCO3], in data set [1], the “improvement in breaking strength of femur” value is on record as 10% and the “improvement in breaking strength of metatarsals” value came to 11%. Also, in data set [2], the “femur Cross-sectional area” value came out at 151 mm^2, the “femur Cross-sectional radius” value was 9.0 mm, the “femur Maximum bending moment” value was 2286 kg × mm and the “femur Maximum stress” value is reported as 4.3 kg/mm^2. In data set [2], the “femur Modulus of elasticity” value amounted to 50 kg/mm^2, the “femur Moment of inertia” value was determined as 4891 mm^4, the “femur Strain” value is listed as 0.05 and the “femur Yield bending moment” value is listed as 1384 kg-mm. Also, the “femur Yield stress” value in data set [2] came to 2.6 kg/mm^2. In addition, in data set [3], the “elevation of BMD of the two bones (metatarsal, femur)” value amounted to 6% and the “enhancement of BMC in both bones (metatarsal, femur)” value fell in the range of 6 to 8%. Also, in data set [4] (setting [5]), the “elevation of metatarsal concentration of Sr” value is listed as 4 fold and the “enhancement of femur concentration of Sr” value is 3.9 fold. Besides, in data set [4] (setting [6]), the “femur Cr concentration” value worked out at 7.0 mg/kg, the “femur Fe concentration” value was 6.9 mg/kg, the “femur Mg concentration” value is listed as 5.4 g/kg and the “femur Mn concentration” value came out at 0.6 mg/kg. In addition, in data set [4] (setting [6]), the “femur Na concentration” value is listed as 8.0 g/kg, the “femur P concentration” value is listed as 176.3 g/kg, the “femur S concentration” value turned out to be 1.1 g/kg and the “femur Sr concentration” value is listed as 418.9 mg/kg. Besides, in data set [4] (setting [6]), the “femur Zn concentration” value was found to be 209.6 mg/kg, the “metatarsal Cr concentration” value is reported as 26.6 mg/kg, the “metatarsal Fe concentration” value worked out at 23.5 mg/kg and the “metatarsal Mg concentration” value came to 3.5 g/kg. In data set [4] (setting [6]), the “metatarsal Mn concentration” value came out at 2.8 mg/kg, the “metatarsal Na concentration” value was found to be 6.8 g/kg, the “metatarsal P concentration” value is 88.1 g/kg and the “metatarsal S concentration” value came to 1.0 g/kg. Further, in data set [4] (setting [6]), the “metatarsal Sr concentration” value is reported as 330.6 mg/kg and the “metatarsal Zn concentration” value is 146.8 mg/kg.

Take `[Br-].[Br-].[Sr+2]` [strontium bromide]: the LD50 in the data set with rats is 1 g/kg body weight.

For `[Cl-].[Cl-].[Sr+2]` [strontium chloride], the LD50 in the data set with mice was 147.6 mg/kg body weight.

For the molecule `[I-].[I-].[Sr+2]` [strontium iodide], in the data set with rats, the LD50 is 800 mg/kg body weight.

strontium acetate: the LD50 with rats is reported as 1.16 mmol/kg.

Source of the values: US8192734B2, “Compositions and methods for bone strengthening” (Cornell University, priority 2007, dated 2012).
